In patent US20220202017A1, “MESOIONIC IMIDAZOLIUM COMPOUNDS AND DERIVATIVES FOR COMBATING ANIMAL PESTS” (BASF SE, priority 2019, published 2022) one finds mortality data, which are given here for ten compounds.

Where two headings read alike, the source gives them in different places.

Holding throughout (type): in vivo
One test relates to Megoura viciae. In words: Vetch aphid (Megoura viciae) control through contact or systemic means, broad bean leaf disks. The following applies: foliar, 120 h, read-out: mortality in comparison with untreated controls (aphid mortality). Here is the method:
Vetch Aphid (Megoura viciae)
For evaluating control of vetch aphid (Megoura viciae) through contact or systemic means the test unit consisted of 24-well-microtiter plates containing broad bean leaf disks.
The compounds were formulated using a solution containing 75% v/v water and 25% v/v DMSO. Different concentrations of formulated compounds were sprayed onto the leaf disks at 2.5 μl, using a custom built micro atomizer, at two replications. After application, the leaf disks were air-dried and 5-8 adult aphids placed on the leaf disks inside the microtiter plate wells. The aphids were then allowed to suck on the treated leaf disks and incubated at about 23±1° C. and about 50±5% relative humidity for 5 days. Aphid mortality and fecundity was then visually assessed.

In a further test the test system is Myzus persicae. In words: Green peach aphid (Myzus persicae) control through systemic means, artificial diet under membrane. The following applies: 72 h, read-out: mortality in comparison with untreated controls (aphid mortality). From the text: Green Peach Aphid (Myzus persicae)
For evaluating control of green peach aphid (Myzus persicae) through systemic means the test unit consisted of 96-well-microtiter plates containing liquid artificial diet under an artificial membrane. The compounds were formulated using a solution containing 75% v/v water and 25% v/v DMSO. Different concentrations of formulated compounds were pipetted into the aphid diet, using a custom built pipetter, at two replications. After application, 5-8 adult aphids were placed on the artificial membrane inside the microtiter plate wells. The aphids were then allowed to suck on the treated aphid diet and incubated at about 23±1° C. and about 50±5% relative humidity for 3 days. Aphid mortality and fecundity was then visually assessed.

In another test the test system is Heliothis virescens. In words: Tobacco budworm (Heliothis virescens) control, 96-well microtiter plate with insect diet and eggs. The following applies: 120 h, sprayed onto insect diet, 5 days, visually assessed, read-out: mortality in comparison with untreated controls (egg and larval mortality). On the procedure:
Tobacco Budworm (Heliothis virescens)
For evaluating control of tobacco budworm (Heliothis virescens) the test unit consisted of 96-well-microtiter plates containing an insect diet and 15-25 H. virescens eggs. The compounds were formulated using a solution containing 75% v/v water and 25% v/v DMSO. Different concentrations of formulated compounds were sprayed onto the insect diet at 10 μl, using a custom built micro atomizer, at two replications. After application, microtiter plates were incubated at about 28±1° C. and about 80±5% relative humidity for 5 days. Egg and larval mortality was then visually assessed.

A further test concerns Anthonomus grandis. In words: Boll weevil (Anthonomus grandis) control, 96-well microtiter plate with insect diet and eggs. The following applies: 120 h, sprayed onto insect diet, 5 days, visually assessed, read-out: mortality in comparison with untreated controls (egg and larval mortality). On the procedure: Boll Weevil (Anthonomus grandis)
For evaluating control of boll weevil (Anthonomus grandis) the test unit consisted of 96-well-microtiter plates containing an insect diet and 5-10 A. grandis eggs. The compounds were formulated using a solution containing 75% v/v water and 25% v/v DMSO. Different concentrations of formulated compounds were sprayed onto the insect diet at 5 μl, using a custom built micro atomizer, at two replications. After application, microtiter plates were incubated at about 25±1° C. and about 75±5% relative humidity for 5 days. Egg and larval mortality was then visually assessed.

Where [1] appears, read: 2500 ppm, sprayed onto leaf disks, 5 days, visually assessed.
[2] abbreviates: 2500 ppm, pipetted into aphid diet, 3 days, visually assessed.

One may read the mortality as the percentage killed. For `CCn1c([O-])c(C(=O)c2ccccc2)[n+]2c1SCC2c1ccc(Cl)nc1` (centres unmarked) [Compound C-1, 5-benzoyl-3-(6-chloro-3-pyridyl)-7-ethyl-2,3-dihydroimidazo[2,1-b]thiazol-4-ium-6-olate], the mortality at 2500 ppm in the test with Megoura viciae and with Myzus persicae was more than 75% throughout.
In the case of `C[n+]1c([O-])c(C(=O)C(F)F)n2c1SCC2c1cnc(Cl)s1` (centres unmarked) [Compound C-3], the mortality at 2500 ppm in the test with Heliothis virescens, in the test with Megoura viciae and in the test with Myzus persicae was more than 75% throughout.
Consider `C[n+]1c([O-])c(C(=O)C(=O)OCC(F)(F)F)n2c1SC[C@@H]2c1cnc(Cl)s1` [Compound C-9], for which the mortality at 2500 ppm in the test on Megoura viciae (setting [1]) and with Myzus persicae (setting [2]) was more than 75% in each case.
With `CC(=O)c1c([O-])[n+](C)c2n1C(c1cnc(Cl)s1)CS2` (centres unmarked) [Compound C-2], the mortality at 2500 ppm in the test with Megoura viciae and in the test with Myzus persicae was more than 75% each time.
Consider `C[n+]1c([O-])c(C(=O)c2ccccc2)n2c1SCC2CC#N` (centres unmarked) [Compound C-4], for which the mortality at 2500 ppm in the test on Megoura viciae (setting [1]) and in the test with Myzus persicae (setting [2]) was more than 75% throughout.
`CC[n+]1c([O-])c(C(C)=O)n2c1SCC2c1ccc(Cl)nc1` (centres unmarked) [Compound C-8]: the mortality at 2500 ppm with Anthonomus grandis, in the test with Megoura viciae and in the test with Myzus persicae was more than 75% in each case.
Regarding `CCOC(=O)C(=O)C1=C(O)N(C)C2N(C)CC(c3cnc(Cl)s3)N12` (centres unmarked) [Compound C-12], the mortality at 2500 ppm with Anthonomus grandis, in the test on Heliothis virescens and with Myzus persicae was more than 75% each time.
With `CC[n+]1c([O-])c(C(=O)c2cccs2)n2c1SCC2c1ccc(Cl)nc1` (centres unmarked) [Compound C-7], the mortality at 2500 ppm in the test on Anthonomus grandis, in the test on Megoura viciae and with Myzus persicae was more than 75% throughout.
For the compound `CC[n+]1c([O-])c(C(=O)C(=O)OCC(F)(F)F)n2c1SCC2c1ccc(Cl)nc1` (centres unmarked) [Compound C-10], the mortality at 2500 ppm with Megoura viciae and with Myzus persicae was more than 75% in each case.
As for `CC[n+]1c([O-])c(C(=O)C(F)(F)C(F)(F)F)n2c1SCC2c1ccc(Cl)nc1` (centres unmarked) [Compound C-6], the mortality at 2500 ppm with Anthonomus grandis, in the test with Heliothis virescens, in the test on Megoura viciae and in the test on Myzus persicae was more than 75% throughout.
